Columns and labels:
Assay in all cases: PDSP binding, primary screen
[1] = molecular target: T1, MOR (Homo sapiens, UniProt P35372)
T1 construct: purchased NIMH Psychoactive Drug Screening Program (PDSP), University of North Carolina-Chapel Hill
Method: (§1) This was achieved through the identification of potential pharmacological targets of compound 22 using the Psychoactive Drug Screening Program (PDSP) at University of North Carolina-Chapel-Hill. PDSP provides a platform for screening novel psychoactive compounds on human proteins expressed in the central nervous system in order to identify their biological target(s) ([Besnard et al., 2012]). Binding studies were done on 47 targets at a single dose of compound 22 (10 μM; Supplementary Table S1). This primary screen yielded a total of 5 hits for compound 22 (Table 2). These hits were the serotonin, dopamine, and norepinephrine transporters, as well as the sigma 1 and sigma 2 receptors.
(§2) Supplemental Table 1. Compound 22 binding studies from PDSP: primary screen for compound 22 and subsequent hits (50% cut-off, hits highlighted in red). The primary screen was performed by PDSP as described previously (Besnard et al., 2012).

[2] = molecular target: T2, DAT (Homo sapiens, UniProt Q01959)
T2 construct: purchased NIMH Psychoactive Drug Screening Program (PDSP), University of North Carolina-Chapel Hill
Method: as §1, §2

[3] = molecular target: T3, M2 (Homo sapiens, UniProt P08172)
T3 construct: purchased NIMH Psychoactive Drug Screening Program (PDSP), University of North Carolina-Chapel Hill
Method: as §1, §2

[4] = molecular target: T4, D3 (Homo sapiens, UniProt P35462)
T4 construct: purchased NIMH Psychoactive Drug Screening Program (PDSP), University of North Carolina-Chapel Hill
Method: as §1, §2

[5] = molecular target: T5, NET (Homo sapiens, UniProt P23975)
T5 construct: purchased NIMH Psychoactive Drug Screening Program (PDSP), University of North Carolina-Chapel Hill
Method: as §1, §2

[6] = molecular target: T6, 5-HT7 (Homo sapiens, UniProt P34969)
T6 construct: purchased NIMH Psychoactive Drug Screening Program (PDSP), University of North Carolina-Chapel Hill
Method: as §1, §2

[7] = molecular target: T7, 5-HT3 (Homo sapiens, UniProt P46098)
T7 construct: purchased NIMH Psychoactive Drug Screening Program (PDSP), University of North Carolina-Chapel Hill
T7 sequence (P46098 24-478): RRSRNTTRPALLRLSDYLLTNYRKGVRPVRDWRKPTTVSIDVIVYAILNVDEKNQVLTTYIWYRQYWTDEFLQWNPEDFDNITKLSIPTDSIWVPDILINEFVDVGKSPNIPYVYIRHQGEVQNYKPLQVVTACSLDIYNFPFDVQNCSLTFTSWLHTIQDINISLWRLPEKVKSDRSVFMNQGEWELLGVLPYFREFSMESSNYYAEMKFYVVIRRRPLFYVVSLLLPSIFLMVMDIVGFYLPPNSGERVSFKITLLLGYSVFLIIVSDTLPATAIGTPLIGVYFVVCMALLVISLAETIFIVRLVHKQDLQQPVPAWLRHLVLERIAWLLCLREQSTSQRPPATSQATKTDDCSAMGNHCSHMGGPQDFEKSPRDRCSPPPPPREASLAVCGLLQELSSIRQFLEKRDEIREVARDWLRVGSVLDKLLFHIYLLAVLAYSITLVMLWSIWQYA
Method: as §1, §2

[8] = molecular target: T8, DOR (Homo sapiens, UniProt P41143)
T8 construct: purchased NIMH Psychoactive Drug Screening Program (PDSP), University of North Carolina-Chapel Hill
Method: as §1, §2

[9] = molecular target: T9, 5-HT1A (Homo sapiens, UniProt P08908)
T9 construct: purchased NIMH Psychoactive Drug Screening Program (PDSP), University of North Carolina-Chapel Hill
Method: as §1, §2

[10] = molecular target: T10, 5-HT2A (Homo sapiens, UniProt P28223)
T10 construct: purchased NIMH Psychoactive Drug Screening Program (PDSP), University of North Carolina-Chapel Hill
Method: as §1, §2

[11] = molecular target: T11, D5 (Homo sapiens, UniProt P21918)
T11 construct: purchased NIMH Psychoactive Drug Screening Program (PDSP), University of North Carolina-Chapel Hill
T11 sequence (P21918 whole entry): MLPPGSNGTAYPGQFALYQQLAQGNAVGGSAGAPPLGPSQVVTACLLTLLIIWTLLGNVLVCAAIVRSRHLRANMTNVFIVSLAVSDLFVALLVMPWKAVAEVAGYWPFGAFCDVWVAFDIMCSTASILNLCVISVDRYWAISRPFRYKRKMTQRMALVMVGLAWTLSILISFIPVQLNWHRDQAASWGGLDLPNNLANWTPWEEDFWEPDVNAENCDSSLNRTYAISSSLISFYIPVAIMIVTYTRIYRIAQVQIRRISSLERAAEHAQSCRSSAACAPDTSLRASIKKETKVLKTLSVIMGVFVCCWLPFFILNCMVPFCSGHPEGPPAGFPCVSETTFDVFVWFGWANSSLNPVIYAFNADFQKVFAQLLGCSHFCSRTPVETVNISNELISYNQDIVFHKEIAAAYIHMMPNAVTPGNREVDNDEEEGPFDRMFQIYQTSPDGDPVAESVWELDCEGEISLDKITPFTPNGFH
Method: as §1, §2

[12] = molecular target: T12, 5-HT2C (Homo sapiens, UniProt P28335)
T12 construct: purchased NIMH Psychoactive Drug Screening Program (PDSP), University of North Carolina-Chapel Hill
Method: as §1, §2

[13] = molecular target: T13, H1 (Homo sapiens, UniProt P35367)
T13 construct: purchased NIMH Psychoactive Drug Screening Program (PDSP), University of North Carolina-Chapel Hill
Method: as §1, §2

[14] = molecular target: T14, Beta2 (Homo sapiens, UniProt P07550)
T14 construct: purchased NIMH Psychoactive Drug Screening Program (PDSP), University of North Carolina-Chapel Hill
Method: as §1, §2

[15] = molecular target: T15, Sigma 1 (Homo sapiens, UniProt Q99720)
T15 construct: purchased NIMH Psychoactive Drug Screening Program (PDSP), University of North Carolina-Chapel Hill
Method: as §1, §2

[16] = molecular target: T16, M5 (Homo sapiens, UniProt P08912)
T16 construct: purchased NIMH Psychoactive Drug Screening Program (PDSP), University of North Carolina-Chapel Hill
Method: as §1, §2

[17] = molecular target: T17, H3 (Homo sapiens, UniProt Q9Y5N1)
T17 construct: purchased NIMH Psychoactive Drug Screening Program (PDSP), University of North Carolina-Chapel Hill
T17 sequence (Q9Y5N1 whole entry): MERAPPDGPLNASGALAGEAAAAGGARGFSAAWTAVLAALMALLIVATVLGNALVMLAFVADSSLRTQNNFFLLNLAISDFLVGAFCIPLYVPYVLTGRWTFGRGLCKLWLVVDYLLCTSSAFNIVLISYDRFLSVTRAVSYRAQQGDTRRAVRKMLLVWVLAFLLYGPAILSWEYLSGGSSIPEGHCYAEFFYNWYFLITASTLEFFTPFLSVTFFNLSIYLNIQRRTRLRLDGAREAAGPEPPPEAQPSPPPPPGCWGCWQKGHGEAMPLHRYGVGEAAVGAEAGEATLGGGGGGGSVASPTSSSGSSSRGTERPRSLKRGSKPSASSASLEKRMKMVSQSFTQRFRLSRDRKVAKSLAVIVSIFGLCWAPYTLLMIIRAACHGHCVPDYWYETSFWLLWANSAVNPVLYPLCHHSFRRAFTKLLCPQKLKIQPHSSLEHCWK
Method: as §1, §2

[18] = molecular target: T18, Alpha1D (Homo sapiens, UniProt P25100)
T18 construct: purchased NIMH Psychoactive Drug Screening Program (PDSP), University of North Carolina-Chapel Hill
T18 sequence (P25100 whole entry): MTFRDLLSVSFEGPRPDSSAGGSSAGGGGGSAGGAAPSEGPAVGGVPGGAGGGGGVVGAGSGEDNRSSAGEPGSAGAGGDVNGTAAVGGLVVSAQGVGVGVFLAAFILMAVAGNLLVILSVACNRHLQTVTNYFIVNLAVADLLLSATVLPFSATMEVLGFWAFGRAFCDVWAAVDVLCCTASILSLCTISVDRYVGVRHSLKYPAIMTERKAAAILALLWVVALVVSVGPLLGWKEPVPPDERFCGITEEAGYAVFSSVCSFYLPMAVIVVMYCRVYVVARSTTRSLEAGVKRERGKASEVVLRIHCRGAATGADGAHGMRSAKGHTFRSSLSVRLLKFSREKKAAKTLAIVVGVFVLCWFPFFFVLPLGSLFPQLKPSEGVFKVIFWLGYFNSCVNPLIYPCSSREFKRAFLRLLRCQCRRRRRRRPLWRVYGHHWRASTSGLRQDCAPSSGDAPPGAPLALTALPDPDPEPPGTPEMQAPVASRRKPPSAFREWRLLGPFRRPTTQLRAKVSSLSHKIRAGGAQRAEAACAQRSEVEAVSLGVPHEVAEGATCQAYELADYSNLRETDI
Method: as §1, §2

[19] = molecular target: T19, 5-HT1D (Homo sapiens, UniProt P28221)
T19 construct: purchased NIMH Psychoactive Drug Screening Program (PDSP), University of North Carolina-Chapel Hill
Method: as §1, §2

[20] = molecular target: T20, Alpha2A (Homo sapiens, UniProt P08913)
T20 construct: purchased NIMH Psychoactive Drug Screening Program (PDSP), University of North Carolina-Chapel Hill
Method: as §1, §2

[21] = molecular target: T21, Alpha1A (Homo sapiens, UniProt P35348)
T21 construct: purchased NIMH Psychoactive Drug Screening Program (PDSP), University of North Carolina-Chapel Hill
Method: as §1, §2

[22] = molecular target: T22, SERT (Homo sapiens, UniProt P31645)
T22 construct: purchased NIMH Psychoactive Drug Screening Program (PDSP), University of North Carolina-Chapel Hill
Method: as §1, §2

[23] = molecular target: T23, 5-HT1E (Homo sapiens, UniProt P28566)
T23 construct: purchased NIMH Psychoactive Drug Screening Program (PDSP), University of North Carolina-Chapel Hill
Method: as §1, §2

[24] = molecular target: T24, Alpha2B (Homo sapiens, UniProt P18089)
T24 construct: purchased NIMH Psychoactive Drug Screening Program (PDSP), University of North Carolina-Chapel Hill
T24 sequence (P18089 whole entry): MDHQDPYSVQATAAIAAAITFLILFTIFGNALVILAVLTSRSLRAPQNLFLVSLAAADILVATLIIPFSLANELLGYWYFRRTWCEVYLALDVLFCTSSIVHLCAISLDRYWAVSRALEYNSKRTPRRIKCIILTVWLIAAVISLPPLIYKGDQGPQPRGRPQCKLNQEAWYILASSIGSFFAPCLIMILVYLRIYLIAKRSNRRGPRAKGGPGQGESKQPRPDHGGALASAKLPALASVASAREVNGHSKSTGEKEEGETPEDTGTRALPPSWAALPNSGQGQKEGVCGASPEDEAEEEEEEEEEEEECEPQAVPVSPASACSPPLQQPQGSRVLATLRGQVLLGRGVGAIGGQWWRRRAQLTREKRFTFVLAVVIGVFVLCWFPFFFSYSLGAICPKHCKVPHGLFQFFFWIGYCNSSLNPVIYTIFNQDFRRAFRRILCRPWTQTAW
Method: as §1, §2

[25] = molecular target: T25, Alpha1B (Homo sapiens, UniProt P35368)
T25 construct: purchased NIMH Psychoactive Drug Screening Program (PDSP), University of North Carolina-Chapel Hill
Method: as §1, §2

[26] = molecular target: T26, KOR (Homo sapiens, UniProt P41145)
T26 construct: purchased NIMH Psychoactive Drug Screening Program (PDSP), University of North Carolina-Chapel Hill
T26 sequence (P41145 whole entry): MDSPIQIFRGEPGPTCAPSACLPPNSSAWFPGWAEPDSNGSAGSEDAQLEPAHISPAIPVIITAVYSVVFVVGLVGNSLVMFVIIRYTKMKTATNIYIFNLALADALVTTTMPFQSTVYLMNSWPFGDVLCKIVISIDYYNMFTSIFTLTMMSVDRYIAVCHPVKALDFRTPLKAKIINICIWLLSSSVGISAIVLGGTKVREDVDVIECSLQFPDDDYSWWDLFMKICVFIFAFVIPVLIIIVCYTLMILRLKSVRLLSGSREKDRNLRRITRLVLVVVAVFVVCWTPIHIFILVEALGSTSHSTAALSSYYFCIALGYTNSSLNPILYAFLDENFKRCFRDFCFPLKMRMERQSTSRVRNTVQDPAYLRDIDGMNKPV
Method: as §1, §2

[27] = molecular target: T27, Alpha2C (Homo sapiens, UniProt P18825)
T27 construct: purchased NIMH Psychoactive Drug Screening Program (PDSP), University of North Carolina-Chapel Hill
Method: as §1, §2

[28] = molecular target: T28, D4 (Homo sapiens, UniProt P21917)
T28 construct: purchased NIMH Psychoactive Drug Screening Program (PDSP), University of North Carolina-Chapel Hill
T28 sequence (P21917 whole entry): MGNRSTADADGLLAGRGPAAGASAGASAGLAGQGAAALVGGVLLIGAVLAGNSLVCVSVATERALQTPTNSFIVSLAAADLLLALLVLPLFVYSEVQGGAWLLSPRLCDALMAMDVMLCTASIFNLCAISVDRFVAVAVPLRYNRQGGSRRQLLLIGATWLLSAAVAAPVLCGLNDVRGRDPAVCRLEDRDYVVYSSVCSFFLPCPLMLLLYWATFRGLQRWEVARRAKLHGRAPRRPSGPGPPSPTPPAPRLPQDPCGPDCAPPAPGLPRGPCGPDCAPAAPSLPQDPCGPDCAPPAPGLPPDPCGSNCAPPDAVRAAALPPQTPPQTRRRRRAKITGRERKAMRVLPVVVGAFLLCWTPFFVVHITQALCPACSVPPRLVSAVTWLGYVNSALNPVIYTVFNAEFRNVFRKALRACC
Method: as §1, §2

[29] = molecular target: T29, D1 (Homo sapiens, UniProt P21728)
T29 construct: purchased NIMH Psychoactive Drug Screening Program (PDSP), University of North Carolina-Chapel Hill
T29 sequence (P21728 whole entry): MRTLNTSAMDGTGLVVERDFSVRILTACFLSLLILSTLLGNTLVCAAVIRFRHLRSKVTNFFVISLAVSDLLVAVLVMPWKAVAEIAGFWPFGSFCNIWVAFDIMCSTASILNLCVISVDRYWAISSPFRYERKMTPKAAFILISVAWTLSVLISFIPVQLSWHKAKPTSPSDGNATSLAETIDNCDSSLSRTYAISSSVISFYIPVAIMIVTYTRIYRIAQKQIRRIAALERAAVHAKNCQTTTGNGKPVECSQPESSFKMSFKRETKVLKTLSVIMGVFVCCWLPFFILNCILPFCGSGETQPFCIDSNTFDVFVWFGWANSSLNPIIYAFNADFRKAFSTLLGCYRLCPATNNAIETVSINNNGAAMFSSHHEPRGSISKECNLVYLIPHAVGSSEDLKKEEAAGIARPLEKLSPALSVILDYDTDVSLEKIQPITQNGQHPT
Method: as §1, §2

[30] = molecular target: T30, 5-HT1B (Homo sapiens, UniProt P28222)
T30 construct: purchased NIMH Psychoactive Drug Screening Program (PDSP), University of North Carolina-Chapel Hill
T30 sequence (P28222 whole entry): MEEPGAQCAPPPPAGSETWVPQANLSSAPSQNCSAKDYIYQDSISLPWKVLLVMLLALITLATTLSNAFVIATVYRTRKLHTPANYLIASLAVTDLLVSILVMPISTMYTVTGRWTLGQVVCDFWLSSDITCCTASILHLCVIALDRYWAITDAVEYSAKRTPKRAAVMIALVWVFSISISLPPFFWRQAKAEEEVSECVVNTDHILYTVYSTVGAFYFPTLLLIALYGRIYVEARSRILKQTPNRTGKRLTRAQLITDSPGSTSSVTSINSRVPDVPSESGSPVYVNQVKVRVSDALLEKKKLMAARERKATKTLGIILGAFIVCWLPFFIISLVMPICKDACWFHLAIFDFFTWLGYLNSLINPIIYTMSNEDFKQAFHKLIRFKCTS
Method: as §1, §2

[31] = molecular target: T31, M3 (Homo sapiens, UniProt P20309)
T31 construct: purchased NIMH Psychoactive Drug Screening Program (PDSP), University of North Carolina-Chapel Hill
Method: as §1, §2

[32] = molecular target: T32, M1 (Homo sapiens, UniProt P11229)
T32 construct: purchased NIMH Psychoactive Drug Screening Program (PDSP), University of North Carolina-Chapel Hill
Method: as §1, §2

[33] = molecular target: T33, Beta3 (Homo sapiens, UniProt P13945)
T33 construct: purchased NIMH Psychoactive Drug Screening Program (PDSP), University of North Carolina-Chapel Hill
Method: as §1, §2

[34] = molecular target: T34, H2 (Homo sapiens, UniProt P25021)
T34 construct: purchased NIMH Psychoactive Drug Screening Program (PDSP), University of North Carolina-Chapel Hill
T34 sequence (P25021 whole entry): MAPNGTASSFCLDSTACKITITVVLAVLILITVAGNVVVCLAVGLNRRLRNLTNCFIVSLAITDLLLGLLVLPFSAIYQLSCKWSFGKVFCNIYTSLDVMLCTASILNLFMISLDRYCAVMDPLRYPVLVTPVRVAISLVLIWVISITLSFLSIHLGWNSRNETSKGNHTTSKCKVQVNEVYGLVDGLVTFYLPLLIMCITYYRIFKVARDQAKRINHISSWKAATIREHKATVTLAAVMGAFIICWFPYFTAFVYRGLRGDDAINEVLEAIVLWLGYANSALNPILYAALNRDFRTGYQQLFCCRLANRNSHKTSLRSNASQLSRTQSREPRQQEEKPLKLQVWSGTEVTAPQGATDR
Method: as §1, §2

[35] = molecular target: T35, 5-HT2B (Homo sapiens, UniProt P41595)
T35 construct: purchased NIMH Psychoactive Drug Screening Program (PDSP), University of North Carolina-Chapel Hill
T35 sequence (P41595 whole entry): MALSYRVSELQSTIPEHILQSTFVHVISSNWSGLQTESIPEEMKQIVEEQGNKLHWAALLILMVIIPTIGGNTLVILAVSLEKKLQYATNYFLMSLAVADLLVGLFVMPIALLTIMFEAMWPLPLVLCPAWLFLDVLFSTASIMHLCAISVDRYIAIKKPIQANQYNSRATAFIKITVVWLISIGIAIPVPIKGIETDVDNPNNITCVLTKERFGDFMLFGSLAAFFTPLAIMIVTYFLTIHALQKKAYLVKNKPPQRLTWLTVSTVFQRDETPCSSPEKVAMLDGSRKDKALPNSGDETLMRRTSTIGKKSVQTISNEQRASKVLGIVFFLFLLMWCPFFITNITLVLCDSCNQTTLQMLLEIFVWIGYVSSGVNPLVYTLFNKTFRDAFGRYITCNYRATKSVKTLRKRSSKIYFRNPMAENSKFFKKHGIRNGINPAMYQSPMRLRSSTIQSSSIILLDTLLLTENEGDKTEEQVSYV
Method: as §1, §2

[36] = molecular target: T36, M4 (Homo sapiens, UniProt P08173)
T36 construct: purchased NIMH Psychoactive Drug Screening Program (PDSP), University of North Carolina-Chapel Hill
Method: as §1, §2

Work on Clc1ccc(CNCc2ccc(Cn3cncn3)cc2)c(Cl)c1 [compound 22] yielded an inhibition at 10 µM [1] of -3.7%, an inhibition at 10 µM [2] of 60.5% and an inhibition at 10 µM [3] of 7.1%. For the same compound, the inhibition at 10 µM [4] was 9.4%, the inhibition at 10 µM [5] was 93.4% and the inhibition at 10 µM [6] was 20.2%. It also gave an inhibition at 10 µM [7] of 6%, an inhibition at 10 µM [8] of 6.2% and an inhibition at 10 µM [9] of 9.3%. The inhibition at 10 µM [10] was 2.1%, the inhibition at 10 µM [11] was -6.8% and the inhibition at 10 µM [12] was 18.5%. It also gave an inhibition at 10 µM [13] of 6.3%, an inhibition at 10 µM [14] of -0.6% and an inhibition at 10 µM [15] of 93.2%. It also gave an inhibition at 10 µM [16] of 1.4%, an inhibition at 10 µM [17] of 17.8% and an inhibition at 10 µM [18] of 11.6%. The inhibition at 10 µM [19] was 9.7%, the inhibition at 10 µM [20] was 32.4% and the inhibition at 10 µM [21] was -13.9%. For the same compound, the inhibition at 10 µM [22] was 57.3%, the inhibition at 10 µM [23] was -1.7% and the inhibition at 10 µM [24] was 22.6%. It also gave an inhibition at 10 µM [25] of 12.8%, an inhibition at 10 µM [26] of -10.2% and an inhibition at 10 µM [27] of -4.3%. It also gave an inhibition at 10 µM [28] of 17.6%, an inhibition at 10 µM [29] of 16.1% and an inhibition at 10 µM [30] of -13.5%. The inhibition at 10 µM [31] was 15.5%, the inhibition at 10 µM [32] was 18.3% and the inhibition at 10 µM [33] was -9.1%. For the same compound, the inhibition at 10 µM [34] was 45.2%, the inhibition at 10 µM [35] was 6.7% and the inhibition at 10 µM [36] was 15.9%.

— article PMC6131539, “Behavioral Effects of a Potential Novel TAAR1 Antagonist” (Frontiers in Pharmacology, 2018)
